Data as given in ChEMBL document CHEMBL1149448, “Synthesis and structure-activity relationships of a new series of 2alpha-substituted trans-4,5-dimethyl-4-(3-hydroxyphenyl)piperidine as mu-selective opioid antagonists” (Bioorg Med Chem Lett, 2006).

Columns and labels:
Mu-type opioid receptor [1] = target: T1, Mu-type opioid receptor (Homo sapiens, UniProt P35372); experiment: Displacement of [3H]diprenorphine from human cloned mu opioid receptor
[2] = target: Kappa-type opioid receptor (Homo sapiens, UniProt P41145); experiment: Displacement of [3H]diprenorphine from human cloned kappa opioid receptor
Sequence of Kappa-type opioid receptor (P41145 whole entry): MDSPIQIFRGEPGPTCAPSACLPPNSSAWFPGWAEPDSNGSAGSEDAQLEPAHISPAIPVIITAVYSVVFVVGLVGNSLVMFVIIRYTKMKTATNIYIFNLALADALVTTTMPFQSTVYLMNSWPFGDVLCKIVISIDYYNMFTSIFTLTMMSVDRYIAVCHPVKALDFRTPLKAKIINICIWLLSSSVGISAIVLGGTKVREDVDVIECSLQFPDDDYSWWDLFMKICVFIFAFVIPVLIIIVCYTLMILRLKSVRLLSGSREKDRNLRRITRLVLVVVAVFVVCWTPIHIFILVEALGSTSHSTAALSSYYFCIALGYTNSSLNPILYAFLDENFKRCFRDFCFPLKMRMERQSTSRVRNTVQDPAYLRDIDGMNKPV

[3] = target: Delta-type opioid receptor (Homo sapiens, UniProt P41143); experiment: Displacement of [3H]diprenorphine from human cloned delta opioid receptor
Sequence of Delta-type opioid receptor (P41143 whole entry): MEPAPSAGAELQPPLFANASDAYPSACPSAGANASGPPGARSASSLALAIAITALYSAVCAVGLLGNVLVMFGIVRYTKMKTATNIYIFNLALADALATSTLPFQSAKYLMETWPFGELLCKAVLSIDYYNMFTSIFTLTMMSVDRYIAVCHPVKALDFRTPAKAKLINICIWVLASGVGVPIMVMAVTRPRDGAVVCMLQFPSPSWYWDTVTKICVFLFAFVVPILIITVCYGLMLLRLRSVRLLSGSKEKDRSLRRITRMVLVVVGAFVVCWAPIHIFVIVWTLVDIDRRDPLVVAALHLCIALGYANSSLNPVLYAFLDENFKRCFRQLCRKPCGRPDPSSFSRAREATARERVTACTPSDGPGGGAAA

Mu-type opioid receptor [4] = target: T1, Mu-type opioid receptor; experiment: Inhibition of loperamide-stimulated [35S]GTP-gamma-S binding to membranes containing mu opioid receptor; assay type: functional

T1 sequence (P35372 whole entry): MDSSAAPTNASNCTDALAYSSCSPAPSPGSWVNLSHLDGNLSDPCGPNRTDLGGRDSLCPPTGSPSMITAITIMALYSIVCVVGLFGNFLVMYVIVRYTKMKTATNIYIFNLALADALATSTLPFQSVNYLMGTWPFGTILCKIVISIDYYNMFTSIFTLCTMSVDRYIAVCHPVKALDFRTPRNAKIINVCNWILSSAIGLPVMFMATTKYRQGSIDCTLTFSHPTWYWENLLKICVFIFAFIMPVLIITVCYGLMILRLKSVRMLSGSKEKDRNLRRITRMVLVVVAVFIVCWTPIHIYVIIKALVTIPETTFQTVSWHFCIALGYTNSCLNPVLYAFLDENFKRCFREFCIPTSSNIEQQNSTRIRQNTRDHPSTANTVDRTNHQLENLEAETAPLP

C[C@H]1CN(CCc2ccccc2)[C@H](CCN2CCCC2)C[C@@]1(C)c1cccc(O)c1
Ki (Mu-type opioid receptor [1]): > 1000 nM | Ki [2]: > 1000 nM | Ki [3]: > 1000 nM | IC50 (Mu-type opioid receptor [4]): > 1000 nM

CCC[C@@H]1C[C@@](C)(c2cccc(O)c2)[C@@H](C)CN1
Ki (Mu-type opioid receptor [1]): 560 nM | Ki [2]: 690 nM | Ki [3]: > 1000 nM | IC50 (Mu-type opioid receptor [4]): > 1000 nM

CCC[C@@H]1C[C@@](C)(c2cccc(O)c2)[C@@H](C)CN1Cc1ccccc1
Ki (Mu-type opioid receptor [1]): 700 nM | Ki [2]: 360 nM | Ki [3]: 880 nM | IC50 (Mu-type opioid receptor [4]): 170 nM

C[C@H]1CN(CCc2ccccc2)[C@H](CCc2ccccc2)C[C@@]1(C)c1cccc(O)c1
Ki (Mu-type opioid receptor [1]): 160 nM | Ki [2]: 790 nM | Ki [3]: 610 nM | IC50 (Mu-type opioid receptor [4]): 210 nM

C[C@H]1CN(CCc2ccccc2)[C@H](c2ccccc2)C[C@@]1(C)c1cccc(O)c1
Ki (Mu-type opioid receptor [1]): 280 nM | Ki [2]: 290 nM | Ki [3]: 260 nM | IC50 (Mu-type opioid receptor [4]): > 1000 nM

C[C@H]1CN(CCc2ccccc2)[C@H](CCN)C[C@@]1(C)c1cccc(O)c1
Ki (Mu-type opioid receptor [1]): 780 nM | Ki [2]: 510 nM | Ki [3]: > 1000 nM | IC50 (Mu-type opioid receptor [4]): 390 nM

CCC[C@@H]1C[C@@](C)(c2cccc(O)c2)[C@@H](C)CN1CCCc1ccccc1
Ki (Mu-type opioid receptor [1]): 19 nM | Ki [2]: 74 nM | Ki [3]: 180 nM | IC50 (Mu-type opioid receptor [4]): 16 nM

C[C@H]1CN(CCc2ccccc2)[C@H](CCNC(=O)c2ccccc2)C[C@@]1(C)c1cccc(O)c1
Ki (Mu-type opioid receptor [1]): 59 nM | Ki [2]: 200 nM | Ki [3]: 710 nM | IC50 (Mu-type opioid receptor [4]): 130 nM

CCC[C@@H]1C[C@@](C)(c2cccc(O)c2)[C@@H](C)CN1CCC
Ki (Mu-type opioid receptor [1]): 430 nM | Ki [2]: 360 nM | Ki [3]: > 1000 nM | IC50 (Mu-type opioid receptor [4]): 320 nM

CCCCN1C[C@H](C)[C@](C)(c2cccc(O)c2)C[C@H]1CCC
Ki (Mu-type opioid receptor [1]): 550 nM | Ki [2]: 610 nM | Ki [3]: > 1000 nM | IC50 (Mu-type opioid receptor [4]): 290 nM

CCCCCN1C[C@H](C)[C@](C)(c2cccc(O)c2)C[C@H]1CCC
Ki (Mu-type opioid receptor [1]): 380 nM | Ki [2]: 570 nM | Ki [3]: > 1000 nM | IC50 (Mu-type opioid receptor [4]): 210 nM

CCCCCCN1C[C@H](C)[C@](C)(c2cccc(O)c2)C[C@H]1CCC
Ki (Mu-type opioid receptor [1]): 47 nM | Ki [2]: 150 nM | Ki [3]: 340 nM | IC50 (Mu-type opioid receptor [4]): 39 nM

CCCC[C@@H]1C[C@@](C)(c2cccc(O)c2)[C@@H](C)CN1CCc1ccccc1
Ki (Mu-type opioid receptor [1]): 110 nM | Ki [2]: 200 nM | Ki [3]: 580 nM | IC50 (Mu-type opioid receptor [4]): 120 nM

CCC[C@@H]1C[C@@](C)(c2cccc(O)c2)[C@@H](C)CN1C
Ki (Mu-type opioid receptor [1]): 520 nM | Ki [2]: 220 nM | Ki [3]: > 1000 nM | IC50 (Mu-type opioid receptor [4]): 170 nM

CCC[C@@H]1C[C@@](C)(c2cccc(O)c2)[C@@H](C)CN1CC
Ki [2]: 270 nM | Ki [3]: > 1000 nM | IC50 (Mu-type opioid receptor [4]): 100 nM

C[C@H]1CN(CCc2ccccc2)[C@H](Cc2ccccc2)C[C@@]1(C)c1cccc(O)c1
Ki (Mu-type opioid receptor [1]): 290 nM | Ki [2]: 920 nM | Ki [3]: 800 nM | IC50 (Mu-type opioid receptor [4]): 280 nM

C[C@@H]1C[C@@](C)(c2cccc(O)c2)[C@@H](C)CN1CCc1ccccc1
Ki (Mu-type opioid receptor [1]): 15 nM | Ki [2]: 100 nM | Ki [3]: 65 nM | IC50 (Mu-type opioid receptor [4]): 50 nM

CC[C@@H]1C[C@@](C)(c2cccc(O)c2)[C@@H](C)CN1CCc1ccccc1
Ki (Mu-type opioid receptor [1]): 75 nM | Ki [2]: 710 nM | Ki [3]: 680 nM | IC50 (Mu-type opioid receptor [4]): 90 nM

CCC[C@@H]1C[C@@](C)(c2cccc(O)c2)[C@@H](C)CN1CCc1ccccc1
Ki (Mu-type opioid receptor [1]): 20 nM | Ki [2]: 110 nM | Ki [3]: 120 nM | IC50 (Mu-type opioid receptor [4]): 15 nM

C[C@H]1CN(CCc2ccccc2)[C@H](CCCc2ccccc2)C[C@@]1(C)c1cccc(O)c1
Ki (Mu-type opioid receptor [1]): 230 nM | Ki [2]: 260 nM | Ki [3]: 320 nM | IC50 (Mu-type opioid receptor [4]): 360 nM

CCCCCCCN1C[C@H](C)[C@](C)(c2cccc(O)c2)C[C@H]1CCC
Ki (Mu-type opioid receptor [1]): 13 nM | Ki [2]: 57 nM | Ki [3]: 80 nM | IC50 (Mu-type opioid receptor [4]): 9 nM

CC(=O)NCC[C@@H]1C[C@@](C)(c2cccc(O)c2)[C@@H](C)CN1CCc1ccccc1
Ki (Mu-type opioid receptor [1]): 190 nM | Ki [2]: 620 nM | Ki [3]: > 1000 nM | IC50 (Mu-type opioid receptor [4]): 130 nM

CC(C)[C@@H]1C[C@@](C)(c2cccc(O)c2)[C@@H](C)CN1CCc1ccccc1
Ki (Mu-type opioid receptor [1]): 270 nM | Ki [2]: > 1000 nM | Ki [3]: > 1000 nM | IC50 (Mu-type opioid receptor [4]): 620 nM
